This note sets out measurements from patent US11344521B2, “Methods for the treatment of leptomeningeal disease” (priority 2017, dated 2022).

The data set is described as follows: Solubility in water. It counts as physicochemical.

Consider `NC(=O)C(CCC(=O)[O-])NC(=O)Cc1ccccc1.[Na+]` (stereo not shown) [Iso-PG, phenylacetylisoglutaminate sodium], for which the solubility in water result is given as “soluble in water”.
